Literature values, collected in patent publication US4486414A, “Dolastatins A and B cell growth inhibitory substances” (Arizona Board of Reagents, priority 1983, dated 1984).

Key:
[1] = test system: murine P388 lymphocytic leukemia; details: intraperitoneal doses of 11 μg/kg/day; cited from earlier work
murine B16 melanoma = details: intraperitoneal doses of 11 μg/kg/day; cited from earlier work

dolastatin 1
life extension [1]: 88% | curative response (murine B16 melanoma): 30%
